Test results published in patent US20230312449A1, “CARBOXYLIC ACID COMPOUND, AND PREPARATION METHOD THEREFOR AND APPLICATION THEREOF” (BOTREE CYCLING SCI & TECH CO., LTD., priority 2020, published 2023).
“And” between values parts separate entries of the source, which are not always exact repeats. Equal values may be shown once.

Test: Solubility of extractant in extraction system, oil content by CH2Cl2 extraction and weighing (Ni/Mg chloride system)
Type: physicochemical
Details: 0.62 mol/L in Escaid 110; saponification 24%; nickel chloride solution 1.33 g/L Ni, 4 g/L Mg; 30 min; 25° C.
Method: Compound BC195 and diluent Escaid 110 were prepared into a 0.62 mol/L solution, and an aqueous phase was a magnesium-enriched nickel chloride solution containing 1.33 g/L Ni and 4 g/L Mg; 100 mL of the organic phase was added in a 250 mL separatory funnel, 10 mol/L sodium hydroxide aqueous solution was added for saponification to a saponification proportion of 24%, and after the saponification, 100 mL of the aqueous phase was added, extraction equilibrium was carried out for 30 min, and the temperature was 25° C.
Oil content test: the aqueous phase was separated out and added with H2SO4, and the [H^+] concentration of the aqueous phase solution was about 1 mol/L. The CH2Cl2 was used for extraction (30 mL×3), and the CH2Cl2 layer was collected, dried with 1 g anhydrous Na2SO4 to remove the water in CH2Cl2, and filtered; the filtrate was subjected to rotary evaporation, and then the residue was dried with an oil pump for 30 min. The oil content which CH2Cl2 extracted out in the system was obtained by weighing the flask before and after the rotary evaporation.
This comparative example differs from Performance Example 6 in that Compound BC195 was replaced by Extractant CA12 (commercially available, with an acid content of 98%).

Compound: CCCCCCC(OCC(CC)CCCC)C(=O)O (stereo not shown) [Compound BC195]
- Equilibrium pH: 7.2 and 7.23
